Data set [1] is described as follows: Solubility of CNP compounds at pH 4.0 and pH 6.5. It is filed as physicochemical. How it is done: In order to assess the suitability of CNP compounds for a soluble liquid formulation, the solubility of CNP compounds in pharmaceutically relevant buffers were measured. Solubility at two different pH-levels (pH 4.0 and pH 6.5) was examined as pH is expected to affect solubility.
Preparation of pH 4.0 samples: The pH 4.0 samples of the CNP compounds were prepared by mixing freeze dried peptide with a pH 4.0 5 mM sodium acetate, 250 mM glycerol buffer at room temperature to a nominal concentration of at least 4000-5000 nmol/mL. The pH of the samples was measured and adjusted to pH 4.0 and the samples were allowed to equilibrate at room temperature until next day if not fully dissolved.
Preparation of pH 6.5 samples: The pH 6.5 samples of the CNP compounds were prepared by dissolving the freeze dried peptide in water. While stirring, a part of the peptide solution was transferred to a buffer consisting of 41 mM sodium phosphate and 118 mg/mL glycerol, pH 7.5-8.0, followed by addition of diluted sodium hydroxide followed by another part of the peptide solution and further addition of diluted sodium hydroxide. This procedure was repeated until all of the peptide solution had been added where a nominal concentration of at least 4000-5000 nmol/mL had been reached and the buffer composition was 8 mM sodium phosphate, 23 mg/mL glycerol. The pH of the samples were measured and adjusted to pH 6.5 and the samples were allowed to equilibrate at room temperature until next day if not fully dissolved.
Procedure: Samples at pH 4.0 were prepared as described above and the compound concentration in the supernatant was determined using CAD (Method F, CAD02).
Samples at pH 6.5 were prepared as described above and peptide concentration in the supernatant was determined by CAD (Method F, CAD02).

Data set [2] has as its target T1, human natriuretic peptide receptor 2 (hNPR2) (Homo sapiens, UniProt P20594).
T1 construct: expressed in transfected cells; host or cells: HEK293 (ATCC CRL-1573), clone 35, co-transfected with pGloSensor-42F
T1 sequence (P20594 23-1047): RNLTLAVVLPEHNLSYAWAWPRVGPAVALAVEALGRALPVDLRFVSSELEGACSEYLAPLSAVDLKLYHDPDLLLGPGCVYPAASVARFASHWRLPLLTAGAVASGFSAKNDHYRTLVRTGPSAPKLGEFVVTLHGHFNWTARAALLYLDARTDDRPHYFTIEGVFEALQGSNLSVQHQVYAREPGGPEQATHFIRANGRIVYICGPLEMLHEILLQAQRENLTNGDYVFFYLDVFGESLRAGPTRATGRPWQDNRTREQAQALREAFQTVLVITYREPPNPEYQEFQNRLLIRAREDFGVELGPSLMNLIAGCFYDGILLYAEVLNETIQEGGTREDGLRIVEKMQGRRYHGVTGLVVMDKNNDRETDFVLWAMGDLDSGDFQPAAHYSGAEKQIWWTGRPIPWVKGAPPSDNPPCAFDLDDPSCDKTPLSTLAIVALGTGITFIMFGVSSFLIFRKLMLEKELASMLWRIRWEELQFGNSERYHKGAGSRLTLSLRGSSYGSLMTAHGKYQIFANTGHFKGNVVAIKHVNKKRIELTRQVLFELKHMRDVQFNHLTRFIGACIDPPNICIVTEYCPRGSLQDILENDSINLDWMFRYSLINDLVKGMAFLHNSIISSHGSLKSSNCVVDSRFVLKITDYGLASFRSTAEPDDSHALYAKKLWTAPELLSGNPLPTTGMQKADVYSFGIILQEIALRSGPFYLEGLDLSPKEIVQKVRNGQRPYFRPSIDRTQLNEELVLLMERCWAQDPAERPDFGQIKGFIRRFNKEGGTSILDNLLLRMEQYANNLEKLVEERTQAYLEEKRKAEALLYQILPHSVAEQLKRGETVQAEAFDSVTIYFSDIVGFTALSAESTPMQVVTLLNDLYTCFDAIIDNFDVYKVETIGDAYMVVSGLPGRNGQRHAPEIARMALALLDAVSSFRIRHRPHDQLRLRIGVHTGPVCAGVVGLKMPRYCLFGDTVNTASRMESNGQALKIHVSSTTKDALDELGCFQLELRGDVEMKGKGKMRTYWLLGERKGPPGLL
The data set can be described thus: In vitro hNPR2 activity assay (cGMP GloSensor reporter, HEK293). Format: cell-based. To be noted: potency relative to CNP22 (0065). The method, boiled down:
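Potency is the EC50 from a four-parameter logistic fit, also expressed relative to the in-plate CNP22 control (×100), with at least two replicates. Compounds (ten concentrations, […], HSA-free diluent with 1% OVA, 0.01% Tween20) were incubated 30 min at 37 °C on HEK293 cells co-expressing hNPR2 and a GloSensor cGMP luciferase. Luminescence detected with Bright-Glo.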

Setting [3] is: 8 mM sodium phosphate, 23 mg/mL glycerol, pH 6.5, room temperature, read-out: Solubility at pH 6.5.

These results are taken from patent US20240209028A1, “CNP COMPOUNDS” (priority 2022, published 2024).

SMILES strings stand for the structures. Converted amounts (≈) assume the structure as drawn. Like-named read-outs stand apart in the source and are kept apart here. Starred links: 1 amine or outer side, 2 acyl side, 3 side chain; linkers in the order of their positions; H or OH if unused. Positions of bridges follow the written chain, without caps; N, C: chain ends. Residues, ends and D or L forms follow the SMILES beside them. *: point of attachment. C18 diacid = O=C(O)CCCCCCCCCCCCCCCCC(=O)*; γGlu = O=C(O)[C@H](CCC(=O)[*:2])N[*:1]; AEEA = NCCOCCOCC(=O)O

The solubility is how much of the substance goes into solution per volume. For the compound `CC[C@H](C)[C@@H]1NC(=O)[C@H](CCCNC(=N)N)NC(=O)[C@H](CC(=O)O)NC(=O)[C@H](CC(C)C)NC(=O)[C@@H]2CCCN2C(=O)[C@H](CC(C)C)NC(=O)CNC(=O)[C@H](Cc2ccccc2)NC(=O)[C@@H](NC(=O)CNC(=O)[C@H](CO)NC(=O)[C@H](CO)NC(=O)[C@@H](NC(=O)CNC(=O)[C@@H](NC(=O)[C@H](CCCCN)NC(=O)[C@H](CCC(N)=O)NC(=O)[C@H](C)NC(=O)CNC(=O)[C@H](Cc2c[nH]cn2)NC(=O)[C@H](Cc2ccc(O)cc2)NC(=O)COCCOCCNC(=O)COCCOCCNC(=O)CC[C@H](NC(=O)CCCCCCCCCCCCCCCCC(=O)O)C(=O)O)[C@@H](C)O)C(C)C)CSSC[C@@H](C(=O)O)NC(=O)CNC(=O)[C@H](CC(C)C)NC(=O)CNC(=O)[C@H](CO)NC(=O)[C@H](CC(C)C)NC(=O)[C@H](CO)NC(=O)CNC1=O` [compound 1303] ({C18 diacid-γGlu-AEEA-AEEA}-YHGAQKTGVSSGCFGLPLDRIGSLSGLGC-OH; disulfide 13-29), the solubility in data set [1] (setting [3]) was 4.84 mM (≈ 17.4 mg/mL). In data set [2], the “hNPR2 0% HSA. [EC50% rel CNP]” value is 25.5%.

Regarding `CC[C@H](C)[C@@H]1NC(=O)[C@H](CCCNC(=N)N)NC(=O)[C@H](CC(=O)O)NC(=O)[C@H](CC(C)C)NC(=O)[C@@H]2CCCN2C(=O)[C@H](CC(C)C)NC(=O)CNC(=O)[C@H](Cc2ccccc2)NC(=O)[C@@H](NC(=O)CNC(=O)[C@H](CO)NC(=O)[C@H](CO)NC(=O)[C@H](CC(C)C)NC(=O)CNC(=O)[C@@H](NC(=O)[C@H](Cc2c[nH]cn2)NC(=O)[C@H](CCC(N)=O)NC(=O)[C@H](C)NC(=O)CNC(=O)[C@H](Cc2c[nH]cn2)NC(=O)[C@H](Cc2ccc(O)cc2)NC(=O)COCCOCCNC(=O)COCCOCCNC(=O)CC[C@H](NC(=O)CCCCCCCCCCCCCCCCC(=O)O)C(=O)O)[C@@H](C)O)CSSC[C@@H](C(=O)O)NC(=O)CNC(=O)[C@H](CC(C)C)NC(=O)CNC(=O)[C@H](CO)NC(=O)[C@H](CC(C)C)NC(=O)[C@H](CO)NC(=O)CNC1=O` [compound 1304] ({C18 diacid-γGlu-AEEA-AEEA}-YHGAQHTGLSSGCFGLPLDRIGSLSGLGC-OH; disulfide 13-29), the solubility in data set [1] (setting [3]) was determined as 6.66 mM (≈ 24.1 mg/mL). Moreover, the “hNPR2 0% HSA. [EC50% rel CNP]” value in data set [2] worked out at 20.7%.

As for `CC[C@H](C)[C@@H]1NC(=O)[C@H](CCCNC(=N)N)NC(=O)[C@H](CC(=O)O)NC(=O)[C@H](CC(C)C)NC(=O)[C@@H]2CCCN2C(=O)[C@H](CC(C)C)NC(=O)CNC(=O)[C@H](Cc2ccccc2)NC(=O)[C@@H](NC(=O)CNC(=O)[C@H](CO)NC(=O)[C@H](CO)NC(=O)[C@H](CC(C)C)NC(=O)CNC(=O)[C@H](CCCCN)NC(=O)[C@H](CCCCN)NC(=O)[C@H](CCC(N)=O)NC(=O)[C@H](C)NC(=O)CNC(=O)[C@H](Cc2c[nH]cn2)NC(=O)[C@H](CCC(=O)O)NC(=O)COCCOCCNC(=O)COCCOCCNC(=O)CC[C@H](NC(=O)CCCCCCCCCCCCCCCCC(=O)O)C(=O)O)CSSC[C@@H](C(=O)O)NC(=O)CNC(=O)[C@H](CC(C)C)NC(=O)CNC(=O)[C@H](CO)NC(=O)[C@H](CC(C)C)NC(=O)[C@H](CO)NC(=O)CNC1=O` [compound 1310] ({C18 diacid-γGlu-AEEA-AEEA}-EHGAQKKGLSSGCFGLPLDRIGSLSGLGC-OH; disulfide 13-29), the solubility in data set [1] (setting [3]) stood at 7.61 mM (≈ 27.4 mg/mL). Besides, the “hNPR2 0% HSA. [EC50% rel CNP]” value in data set [2] was determined as 10.4%.

As to `CC[C@H](C)[C@@H]1NC(=O)[C@H](CCCNC(=N)N)NC(=O)[C@H](CC(=O)O)NC(=O)[C@H](CC(C)C)NC(=O)[C@@H]2CCCN2C(=O)[C@H](CC(C)C)NC(=O)CNC(=O)[C@H](Cc2ccccc2)NC(=O)[C@@H](NC(=O)CNC(=O)[C@H](CO)NC(=O)[C@H](CO)NC(=O)[C@@H](NC(=O)CNC(=O)[C@@H](NC(=O)[C@H](Cc2c[nH]cn2)NC(=O)[C@H](CCC(N)=O)NC(=O)[C@H](C)NC(=O)CNC(=O)[C@H](Cc2c[nH]cn2)NC(=O)[C@H](Cc2ccc(O)cc2)NC(=O)[C@H](CCCCN)NC(=O)[C@H](CCCNC(=N)N)NC(=O)[C@H](C)NC(=O)COCCOCCNC(=O)COCCOCCNC(=O)CC[C@H](NC(=O)CCCCCCCCCCCCCCCCC(=O)O)C(=O)O)[C@@H](C)O)C(C)C)CSSC[C@@H](C(=O)O)NC(=O)CNC(=O)[C@H](CC(C)C)NC(=O)CNC(=O)[C@H](CO)NC(=O)[C@H](CC(C)C)NC(=O)[C@H](CO)NC(=O)CNC1=O` [compound 1351] ({C18 diacid-γGlu-AEEA-AEEA}-ARKYHGAQHTGVSSGCFGLPLDRIGSLSGLGC-OH; disulfide 16-32), the solubility in data set [1] (5 mM sodium acetate, 250 mM glycerol, pH 4.0, room temperature, read-out: Solubility at pH 4.0) turned out to be 6.17 mM (≈ 24.4 mg/mL). In data set [2], the “hNPR2 0% HSA. [EC50% rel CNP]” value was found to be 55.2%.

Turning to `CC[C@H](C)[C@@H]1NC(=O)[C@H](CCCNC(=N)N)NC(=O)[C@H](CC(=O)O)NC(=O)[C@H](CC(C)C)NC(=O)[C@@H]2CCCN2C(=O)[C@H](CC(C)C)NC(=O)CNC(=O)[C@H](Cc2ccccc2)NC(=O)[C@@H](NC(=O)CNC(=O)[C@H](CO)NC(=O)[C@H](CO)NC(=O)[C@@H](NC(=O)CNC(=O)[C@@H](NC(=O)[C@H](CCCCN)NC(=O)[C@H](CCC(N)=O)NC(=O)[C@H](C)NC(=O)CNC(=O)[C@H](Cc2c[nH]cn2)NC(=O)[C@H](Cc2ccc(O)cc2)NC(=O)COCCOCCNC(=O)COCCOCCNC(=O)COCCOCCNC(=O)CC[C@H](NC(=O)CCCCCCCCCCCCCCCCC(=O)O)C(=O)O)[C@@H](C)O)C(C)C)CSSC[C@@H](C(=O)O)NC(=O)CNC(=O)[C@H](CC(C)C)NC(=O)CNC(=O)[C@H](CO)NC(=O)[C@H](CC(C)C)NC(=O)[C@H](CO)NC(=O)CNC1=O` [compound 1352] ({C18 diacid-γGlu-AEEA-AEEA-AEEA}-YHGAQKTGVSSGCFGLPLDRIGSLSGLGC-OH; disulfide 13-29), the solubility in data set [1] (setting [3]) was 7.73 mM (≈ 28.9 mg/mL). Besides, in data set [2], the “hNPR2 0% HSA. [EC50% rel CNP]” value is reported as 38.6%.

As to `CC[C@H](C)[C@@H]1NC(=O)[C@H](CCCNC(=N)N)NC(=O)[C@H](CC(=O)O)NC(=O)[C@H](CC(C)C)NC(=O)[C@@H]2CCCN2C(=O)[C@H](CC(C)C)NC(=O)CNC(=O)[C@H](Cc2ccccc2)NC(=O)[C@@H](NC(=O)CNC(=O)[C@H](CO)NC(=O)[C@H](CO)NC(=O)[C@@H](NC(=O)CNC(=O)[C@@H](NC(=O)[C@H](CCCCN)NC(=O)[C@H](CCC(N)=O)NC(=O)[C@H](C)NC(=O)CNC(=O)[C@H](Cc2c[nH]cn2)NC(=O)[C@H](Cc2ccc(O)cc2)NC(=O)[C@H](CCCCN)NC(=O)[C@H](CCCNC(=N)N)NC(=O)[C@H](C)NC(=O)COCCOCCNC(=O)COCCOCCNC(=O)CC[C@H](NC(=O)CC[C@H](NC(=O)CCCCCCCCCCCCCCCCC(=O)O)C(=O)O)C(=O)O)[C@@H](C)O)C(C)C)CSSC[C@@H](C(=O)O)NC(=O)CNC(=O)[C@H](CC(C)C)NC(=O)CNC(=O)[C@H](CO)NC(=O)[C@H](CC(C)C)NC(=O)[C@H](CO)NC(=O)CNC1=O` [compound 1354] ({C18 diacid-γGlu-γGlu-AEEA-AEEA}-ARKYHGAQKTGVSSGCFGLPLDRIGSLSGLGC-OH; disulfide 16-32), the solubility in data set [1] (setting [3]) is 0.44 mM (≈ 1.8 mg/mL). Besides, the “hNPR2 0% HSA. [EC50% rel CNP]” value in data set [2] was 27.5%.
